Results: patent US11292807B2 (OCEANS LTD., priority 2015, dated 2022)
Where two headings read alike, the source gives them in different places.

Tests used:
MDA-MB [1] = settings: MDA-MB
MDA-MB [2] = assay: cells; settings: Homo sapiens, read-out: Average cell viability, MDA-MB
in vitro = settings: human, Average cell viability
PC3 = assay: CIMA assay, cell viability, PC3; settings: for Fold change in viability AVG: PC3
[3] = system: U373 (glioblastoma-astrocytoma); assay: CIMA assay, cell viability, U373; settings: for Fold change in viability AVG: U373
[4] = system: SKOV3 (ovarian adenocarcinoma); assay: CIMA assay, cell viability, SKOV3; settings: for Fold change in viability AVG: SKOV
Protocol: (§1) Stock solutions of the extracts were prepared in dimethylsulfoxide (DMSO) at 10 mg/mL and stored in 200 μl aliquots at −20° C. until analysis. This preparation ensured that the DMSO delivered to cells in culture never exceeded 1%.
(§2) Prepared extracts were assessed following chronic exposure conditions in which cells were seeded at 2×10^3 cells/well (96 well-plate) and incubated with test compounds for 72 h. Each compound was evaluated over a range of concentrations (0, 10, 25, 50 or 100 μg/ml). Cell proliferation was initially assessed using a standard colorimetric indicator of metabolic activity (CIMA) assay. In this assay, tetrazole reduction was evaluated as a measure of metabolic function that evaluates mitochondrial activity to determine the extent of cell proliferation within a culture. This assay is based on the reduction of yellow tetrazolium salt to purple formazan by mitochondrial reductases enzyme in viable cells, resulting in a color changed that confers a change in absorbance.

[5] = system: THP-1 (acute monocytic leukemia); assay: CIMA assay, cell viability, THP-1; settings: for Fold change in viability AVG: THP-1
Protocol: as §1, §2

[6] = system: CCD1079SK (fibroblast, noncancerous but proliferating); assay: CIMA assay, cell viability, CCD1079SK; settings: CCD
A549 (lung carcinoma) = assay: CIMA assay (colorimetric indicator of metabolic activity), cell viability, A549; settings: for Fold change in viability AVG: A549

## CC/C=C\C/C=C\C/C=C\CCCCCCCC(=O)O [Compound 19, α-linolenic acid]
MDA-MB [1]; sample at 1 ug/mL
  MDA-MB AVG: 1.17
MDA-MB [1]; sample at 10 ug/mL
  MDA-MB AVG: 1.18
MDA-MB [1]; sample at 50 ug/mL
  MDA-MB AVG: 0.88
MDA-MB [1]; sample at 100 ug/mL
  MDA-MB AVG: 0.26
MDA-MB [1]; 1 ug/mL
  Fold change in viability AVG: 1.17
MDA-MB [1]; 10 ug/mL
  Fold change in viability AVG: 1.18
MDA-MB [1]; 50 ug/mL
  Fold change in viability AVG: 0.88
MDA-MB [1]; 100 ug/mL
  Fold change in viability AVG: 0.26
MDA-MB [2]; 1 ug/mL
  viability at 1 µg/mL: 108%
MDA-MB [2]; 10 ug/mL
  viability at 10 µg/mL: 108%
MDA-MB [2]; 50 ug/mL
  viability at 50 µg/mL: 81%
MDA-MB [2]; 100 ug/mL
  viability at 100 µg/mL: 24%
In vitro
  viability at 72 h, 1 ug/mL: 109%
  viability at 72 h, 10 ug/mL: 105%
  viability at 72 h, 50 ug/mL: 77%
  viability at 72 h, 100 ug/mL: 21%
PC3; Homo sapiens, PC-3, read-out: Average cell viability, PC3, 1 ug/mL
  viability at 1 µg/mL: 105%
PC3; Homo sapiens, PC-3, read-out: Average cell viability, PC3, 10 ug/mL
  viability at 10 µg/mL: 103%
PC3; Homo sapiens, PC-3, read-out: Average cell viability, PC3, 50 ug/mL
  viability at 50 µg/mL: 88%
PC3; Homo sapiens, PC-3, read-out: Average cell viability, PC3, 100 ug/mL
  viability at 100 µg/mL: 11%
PC3; PC3, sample at 1 ug/mL
  PC3 AVG: 1.09
PC3; PC3, sample at 10 ug/mL
  PC3 AVG: 1.07
PC3; PC3, sample at 50 ug/mL
  PC3 AVG: 0.91
PC3; PC3, sample at 100 ug/mL
  PC3 AVG: 0.12
PC3; 1 ug/mL
  Fold change in viability AVG: 1.09
PC3; 10 ug/mL
  Fold change in viability AVG: 1.07
PC3; 50 ug/mL
  Fold change in viability AVG: 0.91
PC3; 100 ug/mL
  Fold change in viability AVG: 0.12
[3]; Homo sapiens, U373 MG, read-out: Average cell viability, U373, 1 ug/mL
  viability at 1 µg/mL: 116%
[3]; Homo sapiens, U373 MG, read-out: Average cell viability, U373, 10 ug/mL
  viability at 10 µg/mL: 108%
[3]; Homo sapiens, U373 MG, read-out: Average cell viability, U373, 50 ug/mL
  viability at 50 µg/mL: 57%
[3]; Homo sapiens, U373 MG, read-out: Average cell viability, U373, 100 ug/mL
  viability at 100 µg/mL: 10%
[3]; U373, sample at 1 ug/mL
  U373 AVG: 1.18
[3]; U373, sample at 10 ug/mL
  U373 AVG: 1.10
[3]; U373, sample at 50 ug/mL
  U373 AVG: 0.58
[3]; U373, sample at 100 ug/mL
  U373 AVG: 0.10
[3]; 1 ug/mL
  Fold change in viability AVG: 1.18
[3]; 10 ug/mL
  Fold change in viability AVG: 1.10
[3]; 50 ug/mL
  Fold change in viability AVG: 0.58
[3]; 100 ug/mL
  Fold change in viability AVG: 0.10
[4]; Homo sapiens, SK-OV-3, read-out: Average cell viability, SKOV, 1 ug/mL
  viability at 1 µg/mL: 117%
[4]; Homo sapiens, SK-OV-3, read-out: Average cell viability, SKOV, 10 ug/mL
  viability at 10 µg/mL: 111%
[4]; Homo sapiens, SK-OV-3, read-out: Average cell viability, SKOV, 50 ug/mL
  viability at 50 µg/mL: 101%
[4]; Homo sapiens, SK-OV-3, read-out: Average cell viability, SKOV, 100 ug/mL
  viability at 100 µg/mL: 83%
[4]; 1 ug/mL
  Fold change in viability AVG: 1.26
[4]; 10 ug/mL
  Fold change in viability AVG: 1.20
[4]; 50 ug/mL
  Fold change in viability AVG: 1.09
[4]; 100 ug/mL
  Fold change in viability AVG: 0.90
[5]; Homo sapiens, THP-1, read-out: Average cell viability, THP-1, 1 ug/mL
  viability at 1 µg/mL: 102%
[5]; Homo sapiens, THP-1, read-out: Average cell viability, THP-1, 10 ug/mL
  viability at 10 µg/mL: 99%
[5]; Homo sapiens, THP-1, read-out: Average cell viability, THP-1, 50 ug/mL
  viability at 50 µg/mL: 72%
[5]; Homo sapiens, THP-1, read-out: Average cell viability, THP-1, 100 ug/mL
  viability at 100 µg/mL: 31%
[5]; THP-1, sample at 1 ug/mL
  THP-1 AVG: 1.16
[5]; THP-1, sample at 10 ug/mL
  THP-1 AVG: 1.12
[5]; THP-1, sample at 50 ug/mL
  THP-1 AVG: 0.82
[5]; THP-1, sample at 100 ug/mL
  THP-1 AVG: 0.35
[5]; 1 ug/mL
  Fold change in viability AVG: 1.16
[5]; 10 ug/mL
  Fold change in viability AVG: 1.12
[5]; 50 ug/mL
  Fold change in viability AVG: 0.82
[5]; 100 ug/mL
  Fold change in viability AVG: 0.35
[6]; 1 ug/mL
  Fold change in viability AVG: 1.20
[6]; 10 ug/mL
  Fold change in viability AVG: 1.16
[6]; 50 ug/mL
  Fold change in viability AVG: 0.85
[6]; 100 ug/mL
  Fold change in viability AVG: 0.23
A549 (lung carcinoma); A549, sample at 1 ug/mL
  A549 AVG: 1.16
A549 (lung carcinoma); A549, sample at 10 ug/mL
  A549 AVG: 1.16
A549 (lung carcinoma); A549, sample at 50 ug/mL
  A549 AVG: 1.02
A549 (lung carcinoma); A549, sample at 100 ug/mL
  A549 AVG: 0.67
A549 (lung carcinoma); 1 ug/mL
  Fold change in viability AVG: 1.16
A549 (lung carcinoma); 10 ug/mL
  Fold change in viability AVG: 1.16
A549 (lung carcinoma); 50 ug/mL
  Fold change in viability AVG: 1.02
A549 (lung carcinoma); 100 ug/mL
  Fold change in viability AVG: 0.67
A549 (lung carcinoma); Homo sapiens, A549, read-out: Average cell viability, A549, 1 ug/mL
  viability at 1 µg/mL: 99%
A549 (lung carcinoma); Homo sapiens, A549, read-out: Average cell viability, A549, 10 ug/mL
  viability at 10 µg/mL: 100%
A549 (lung carcinoma); Homo sapiens, A549, read-out: Average cell viability, A549, 50 ug/mL
  viability at 50 µg/mL: 88%
A549 (lung carcinoma); Homo sapiens, A549, read-out: Average cell viability, A549, 100 ug/mL
  viability at 100 µg/mL: 57%
